From US6555501B1, “4-trifluoromethyl-3-oxazolylpyridines, processes for their preparation, compositions comprising them and their use as pesticides” (Hoechst Schering AgrEvo GmbH, priority 1998, dated 2003)

How the values were obtained:
Type in all cases: in vivo
[1] = system: black bean aphids (Aphis fabae); test: Black bean aphid dip test on broad bean (plants and aphids dipped in the preparation); conditions: 300 ppm (content of active compound), Vicia faba plants and aphids dipped 5 seconds, after 3 and 6 days storage, read-out: mortality among the aphids
Procedure: Germinated broad bean seeds (Vicia faba) with radicles were transferred into brown glass bottles filled with tap water and subsequently populated with approximately 100 black bean aphids (Aphis fabae). Plants and aphids were then dipped for 5 seconds into an aqueous solution of the formulated preparation to be examined. After the solution had dripped off, plants and animals were kept in a climatized chamber (16 hours of light/day, 25° C., 40-60% relative atmospheric humidity). After 3 and 6 days storage, the effect of the preparation on the aphids was determined. At a concentration of 300 ppm (based on the content of active compound), the preparations of Example Nos. 1/37, 1/78, 1/136, 1/94, 1/174, 1/14, 1/125, 1/187, 1/17, 1/84, 1/52, 1/82, 1/70, 3/74, 1/54, 1/81, 1/42, 3/161, 1/186 effected a mortality of 90-100% among the aphids. (The active compounds are numbered with the Table/No. in the table).

[2] = system: black bean aphids (Aphis fabae); test: Root-systemic activity against black bean aphids on broad bean; conditions: 30 ppm (content of active compound), 4 ml solution pipetted into the bottle with Vicia faba, after 3 and 6 days storage, read-out: mortality among the aphids by root-systemic action
Procedure: Germinated broad bean seeds (Vicia faba) with radicles were transferred into brown glass bottles filled with tap water. Four milliliters of an aqueous solution of the formulated preparation to be examined were pipetted into the brown glass bottle. The broad bean was subsequently heavily populated with approximately 100 black bean aphids (Aphis fabae). Plants and animals were then stored in a climatized chamber (16 hours of light/day, 25° C., 40-60% relative atmospheric humidity). After 3 and 6 days storage, the root-systemic activity of the preparation on the aphids was determined. At a concentration of 30 ppm (based on the content of active compound), the preparations of Example Nos. 1/53, 1/26, 1/37, 1/78, 1/136, 1/56, 1/94, 1/174, 1/14, 1/187, 1/84, 1/52, 1/82, 1/70, 1/32, 3/74, 1/54, 1/81, 1/42, 3/227, 3/161 effected a mortality of 90-100% among the aphids by root-systemic action.

[3] = system: larvae (L3 stage) of the rice leafhopper species Nilaparvata lugens; test: Rice leafhopper test on dipped rice plants; conditions: 144 h, 300 ppm (content of active compound), rice leaves dipped 5 seconds, after 6 days storage, read-out: mortality among the leafhopper larvae
Procedure: The leaves of 12 rice plants having a stem length of 8 cm were dipped for 5 seconds into an aqueous solution of the formulated preparation to be examined. After the solution had dripped off, the rice plants treated in this manner were placed in a Petri dish and populated with approximately 20 larvae (L3 stage) of the rice leafhopper species Nilaparvata lugens. The Petri dish was closed and stored in a climatized chamber (16 hours of light/day, 25° C., 40-60% relative atmospheric humidity). After 6 days storage, the mortality among the leafhopper larvae was determined. At a concentration of 300 ppm (based on the content of active compound), the preparations of Example Nos. 1/53, 1/26, 1/164, 1/174, 1/82, 1/42 effected a mortality of 90-100%.

Row | Structure (SMILES) | mortality at 300 ppm [1] [%] | mortality at 30 ppm [2] [%] | mortality at 300 ppm [3] [%]
1 | CCCSCc1cnc(-c2cnccc2C(F)(F)F)o1 [1/136, 5-n-Propylthiomethyl-2-(4-trifluoromethyl-3-pyridyl)-oxazole] | 90 to 100 | 90 to 100 | –
2 | O=Cc1cnc(-c2cnccc2C(F)(F)F)o1 [1/164, 5-formyl-2-(4-trifluoromethyl-3-pyridyl)-oxazole] | – | – | 90 to 100
